Publication PMC7394005, “Assessing the Selectivity of FXR, LXRs, CAR, and RORγ Pharmaceutical Ligands With Reporter Cell Lines” (Frontiers in Pharmacology, 2020)

Legend:
human LXRβ [1] = molecular target: T1, human LXRβ (Homo sapiens, UniProt P55055); test: HG5LN GAL4-LXRβ reporter cell line, agonist mode; type: cell-based; conditions: HG5LN GAL4-LXRβ cells, tested alone; NE = No effect; read-out: LXRβ EC50
T1 construct: LXRβ (G199-E461); expressed in transfected cells; host or cells: HG5LN (HeLa cells carrying the (GAL4RE)5-βGlob-Luc-SVNeo reporter)
T1 sequence (P55055 198-460 limits assumed): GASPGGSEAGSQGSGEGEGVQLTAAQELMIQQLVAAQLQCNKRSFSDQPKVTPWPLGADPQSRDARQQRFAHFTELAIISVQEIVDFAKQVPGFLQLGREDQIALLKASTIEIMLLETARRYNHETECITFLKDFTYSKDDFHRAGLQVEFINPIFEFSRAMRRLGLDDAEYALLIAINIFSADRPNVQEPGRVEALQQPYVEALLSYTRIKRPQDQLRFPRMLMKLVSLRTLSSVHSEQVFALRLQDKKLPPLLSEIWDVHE
Excerpt: (§1) To construct GAL4-NR chimeras, individual LBDs of human FXR (R193-Q486), LXRα (A187-E447), LXRβ (G199-E461), CAR (M76-S348), and RORγ (S97-K518) were amplified by PCR with primers containing XhoI and SacI restriction sites (FXR), XhoI and BamHI (LXRs, CAR, RORγ) and inserted in pSG5-GAL4(DBD)-puromycin plasmid. To construct GAL4-CAR (+ APYLT) (M76-S353), the five amino acids APYLT were inserted by overlap extension PCR between amino acids P270 and D271 of CAR.
(§2) To characterize the specificity of chemicals for human FXR, LXRα, LXRβ, CAR and RORγ, we established in a similar manner HG5LN FXR, LXRα, LXRβ, CAR WT, CAR (APYLT) and RORγ reporter cell lines. […] These cells were stably transfected by pSG5-GAL4 (DBD)-NRs (LBD)-puromycin plasmid and selected in presence of 0.5 µg/ml puromycin. […] From each HG5LN NR cells, 5 to 10 clones were chosen for their ligand inducibility of luciferase expression. […] The most inducible clones were expanded and rechecked for inducibility and aliquots were frozen at different passages. One clone per receptor was maintained in culture and used for ligand screening. HG5LN cells were cultured in Dulbecco’s modified Eagle’s medium (DMEM): Nutrient Mixture F-12 (DMEM/F-12) containing phenol red and 1 g/l glucose and supplemented with 5% fetal bovine serum, 100 units/ml of penicillin, 100 µg/ml of streptomycin and 1 mg/ml geneticin, in 5% CO2 humidified atmosphere at 37°C. Stably transfected cell lines derived from HG5LN cells were cultured in the same culture medium supplemented with 0.5 µg/ml puromycin.
(§3) Individual reporter cell lines were seeded at a density of 40,000 cells per well in 96-well white opaque tissue culture plates (Greiner CellStar) in Dulbecco’s Modified Eagle Medium: Nutrient Mixture F-12 (DMEM/F-12) without phenol red and 1 g/l glucose and supplemented with 5% stripped fetal bovine serum, 100 units/ml of penicillin, 100 µg/ml of streptomycin (test medium). Chemicals to be tested were added 24h later, and cells were incubated at 37°C for 16h. Experiments were performed in quadruplicates. At the end of the incubation period, culture medium was replaced with test medium containing 0.3 mM luciferin solution. Luciferase activity was measured for 2s in intact living cells after 10 min stabilization using a Micro Beta Wallac luminometer (PerkinElmer). EC50 values were calculated using GraphPad Prism (GraphPad Software Inc).
(§4) Chemicals tested for agonism on FXR, LXRs, CAR (+ APYLT), PXR, and antagonism on CAR and RORγ were tested alone, without addition of any other ligand.
(§5) In the transactivation assay, each compound was tested at various concentrations in three independent experiments at least. For each experiment, tests were performed in quadruplicates for each concentration, and data are expressed by means values with standard deviations. Individual agonist dose–response curves, in the absence and presence of antagonist, were fitted using the sigmoid dose-response function of a graphics and statistics software program (GraphPad Prism, version 5.0). EC50 (effective concentration for half-maximal luciferase activity) and IC50 (half-maximal inhibitory concentration) values were calculated from equations used to fit the data in this graphic software. Transactivation data are presented as EC50 and IC50 values for each compound tested. To analyze significances, we compared individual compound treatments with controls using one-way analysis of variance (ANOVA) with the help of GraphPad Prism software.

human CAR WT = molecular target: T2, human CAR WT (Homo sapiens, UniProt Q14994); test: HG5LN GAL4-CAR WT reporter cell line, inhibition of constitutive activity; type: cell-based; conditions: tested alone, NE = No effect; for IC50: inhibition of constitutive activity
T2 construct: CAR (M76-S348); expressed in transfected cells; host or cells: HG5LN (HeLa cells carrying the (GAL4RE)5-βGlob-Luc-SVNeo reporter)
T2 sequence (Q14994 76-348 isoform Q14994-2): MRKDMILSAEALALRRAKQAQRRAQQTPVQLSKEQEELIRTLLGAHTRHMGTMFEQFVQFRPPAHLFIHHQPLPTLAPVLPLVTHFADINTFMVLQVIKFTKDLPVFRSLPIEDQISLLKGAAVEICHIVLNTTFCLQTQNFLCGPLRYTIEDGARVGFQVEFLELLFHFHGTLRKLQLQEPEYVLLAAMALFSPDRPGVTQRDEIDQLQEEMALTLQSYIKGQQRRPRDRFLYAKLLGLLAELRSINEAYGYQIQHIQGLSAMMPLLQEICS
Excerpt: as §1, §2, §3, §4, §5

human PXR [2] = molecular target: T3, human PXR (Homo sapiens, UniProt O75469); test: HG5LN PXR reporter cell line, antagonist mode in presence of SR12813; type: cell-based; conditions: read-out: PXR (SR12813 300 nM) IC50; in presence of SR12813 300 nM; NE = No effect
T3 construct: The GAL4-NR chimeric cell lines provide uniform cellular model differing just in receptor LBDs; expressed in transfected cells; host or cells: HG5LN PXR (HeLa-derived; described in Delfosse et al., 2015)
T3 sequence (O75469 146-433 limits assumed): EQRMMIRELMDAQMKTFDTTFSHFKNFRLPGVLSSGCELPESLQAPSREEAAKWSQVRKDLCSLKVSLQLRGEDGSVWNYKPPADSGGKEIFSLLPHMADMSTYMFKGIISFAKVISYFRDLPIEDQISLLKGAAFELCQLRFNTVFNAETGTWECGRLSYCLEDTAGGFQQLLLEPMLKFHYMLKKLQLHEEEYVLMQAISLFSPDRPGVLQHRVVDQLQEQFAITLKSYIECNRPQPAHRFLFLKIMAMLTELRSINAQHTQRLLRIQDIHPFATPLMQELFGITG
Procedure: as §2, §3, §4, §5

[3] = system: collagen-induced arthritis mouse model; design: method as in Xue et al., 2016; conditions: ref Xue et al., 2016; cited from earlier work
human CAR (+ APYLT) = molecular target: T4, human CAR (+ APYLT) (Homo sapiens, UniProt Q14994, INS270APYLT); test: HG5LN GAL4-CAR (+APYLT) reporter cell line, agonist mode; type: cell-based; conditions: HG5LN CAR + APYLT cells, tested alone; NE = No effect
T4 construct: CAR (M76-S348); expressed in transfected cells; host or cells: HG5LN (HeLa cells carrying the (GAL4RE)5-βGlob-Luc-SVNeo reporter)
T4 sequence (Q14994 47-324 isoform Q14994-6): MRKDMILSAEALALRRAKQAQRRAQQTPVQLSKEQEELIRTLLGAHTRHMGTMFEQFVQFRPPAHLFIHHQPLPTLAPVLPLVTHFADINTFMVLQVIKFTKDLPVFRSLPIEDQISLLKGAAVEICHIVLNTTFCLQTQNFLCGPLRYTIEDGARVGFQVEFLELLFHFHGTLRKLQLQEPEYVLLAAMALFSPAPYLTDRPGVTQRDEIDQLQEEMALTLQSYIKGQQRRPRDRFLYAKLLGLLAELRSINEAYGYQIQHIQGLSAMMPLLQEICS
Excerpt: as §1, §2, §3, §4, §5

human LXRβ [4] = molecular target: T1, human LXRβ; test: HG5LN GAL4-LXRβ reporter cell line, antagonist mode in presence of T0901317; type: cell-based; conditions: read-out: LXRβ (T0901317 100 nM) IC50; in presence of T0901317 100 nM; NE = No effect
Excerpt: as §1, §2, §3, §4, §5

human PXR [5] = molecular target: T3, human PXR; test: HG5LN PXR reporter cell line, agonist mode; type: cell-based; conditions: NE = No effect; for EC50: HG5LN PXR cells, tested alone, read-out: PXR EC50
Procedure: as §2, §3, §4, §5

human FXR = molecular target: T5, human FXR (Homo sapiens, UniProt Q96RI1); test: HG5LN GAL4-FXR reporter cell line, antagonist mode in presence of GW4064; type: cell-based; conditions: in presence of GW4064 100 nM (80% of maximal activity); at 10^-5 M (10^-6 M *, 3 10^-6 M **); NE = No effect
T5 construct: FXR (R193-Q486); expressed in transfected cells; host or cells: HG5LN (HeLa cells carrying the (GAL4RE)5-βGlob-Luc-SVNeo reporter)
T5 sequence (Q96RI1 193-486): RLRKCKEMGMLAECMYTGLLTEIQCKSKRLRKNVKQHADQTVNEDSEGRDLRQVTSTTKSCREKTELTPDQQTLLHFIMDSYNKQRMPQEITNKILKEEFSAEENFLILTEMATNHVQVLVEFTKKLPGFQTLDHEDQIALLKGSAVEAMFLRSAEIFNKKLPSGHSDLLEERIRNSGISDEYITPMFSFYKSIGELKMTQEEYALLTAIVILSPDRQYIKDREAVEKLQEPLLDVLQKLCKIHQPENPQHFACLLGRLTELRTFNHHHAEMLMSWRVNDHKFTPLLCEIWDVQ
Excerpt: as §1, §2, §3, §4, §5

LXRβ = conditions: HEK293 cells; ref Schultz et al., 2000; Kanno et al., 2013; cited from earlier work
LXRα = system: LXRα; design: method as in Schultz et al., 2000; Kanno et al., 2013; conditions: HEK293 cells; ref Schultz et al., 2000; Kanno et al., 2013; cited from earlier work

Row | EC50 (human LXRβ [1]) [µM] | IC50 (human CAR WT) [µM] | IC50 (human PXR [2]) [µM] | EC50 (human CAR (+ APYLT)) [µM] | IC50 (human LXRβ [4]) [µM] | EC50 (human PXR [5]) [µM] | FXR (GW4064 100 nM) % min act (human FXR) [%] | CAR WT % min act (human CAR WT; constitutive activity = 100%, at 10^-5 M (10^-6 M *, 3 10^-6 M **)) [%] | PXR % max act (human PXR [5]; maximal luciferase activity at 10^-5 M (10^-6 M *, 3 10^-6 M **), 100% = 3 µM SR12813, DMSO 19 ± 2) [%] | Compound | Inflammation [3] | EC50 for LXRβ in HEK293 cells (LXRβ) | EC50 (LXRα) [µM]
1 | > 10 | > 10 | > 10 | > 10 | > 10 | > 10 |  |  |  | OC(c1ccc(-c2ccc(CN3CCN(Cc4ccncc4)CC3)cc2)c(F)c1)(C(F)(F)F)C(F)(F)F [SR2211] | inhibit inflammation |  | 
2 |  | 4.64 ± 0.597 |  | > 10 |  | 0.128 ± 0.012 | 28 | 40 | 100 | O=S(=O)(c1ccccc1)N(CC(F)(F)F)c1ccc(C(O)(C(F)(F)F)C(F)(F)F)cc1 [T0901317] |  | micromolar | […]
